Where two headings read alike, the source gives them in different places.
Tested on: PSMA + PC-3 PiP and PSMA − PC-3 flu tumor xenografts
Conditions: for Biodistribution: PC-3 PiP: PSMA+ tumor xenograft; for Biodistribution: PC-3 flu: PSMA− tumor xenograft

N=C(N)NCc1ccc(C(=O)NCCCCC(NC(=O)CCCCCCC(=O)NCCCC[C@H](NC(=O)N[C@@H](CCC(=O)O)C(=O)O)C(=O)O)C(=O)O)cc1[211At] (stereo partly shown) [[^211At] labeled PSMA-904]
Biodistribution: Lrg Int. (1 H post-injection): 0.75 ± 0.98 % ID/g | Biodistribution: Sm int. (1 H post-injection): 33.9 ± 5.49 % ID/g | Biodistribution: bladder (1 H post-injection): 1.17 ± 0.20 % ID/g | Biodistribution: blood (1 H post-injection): 0.65 ± 0.33 % ID/g | Biodistribution: heart (1 H post-injection): 0.84 ± 0.27 % ID/g | Biodistribution: kidney (1 H post-injection): 86.5 ± 15.5 % ID/g | Biodistribution: liver (1 H post-injection): 5.11 ± 4.13 % ID/g | Biodistribution: lung (1 H post-injection): 2.24 ± 0.51 % ID/g | Biodistribution: muscle (1 H post-injection): 0.38 ± 0.16 % ID/g | Biodistribution: spleen (1 H post-injection): 9.51 ± 2.76 % ID/g | Biodistribution: stomach (1 H post-injection): 1.64 ± 0.62 % ID/g | Biodistribution: thyroid (1 H post-injection): 0.51 ± 0.16 % ID/g | Biodistribution: Lrg Int. (2 H post-injection): 26.7 ± 15.3 % ID/g | Biodistribution: Sm int. (2 H post-injection): 13.8 ± 10.9 % ID/g | Biodistribution: bladder (2 H post-injection): 1.30 ± 0.24 % ID/g | Biodistribution: blood (2 H post-injection): 0.35 ± 0.03 % ID/g | Biodistribution: heart (2 H post-injection): 0.76 ± 0.11 % ID/g | Biodistribution: kidney (2 H post-injection): 87.7 ± 11.0 % ID/g | Biodistribution: liver (2 H post-injection): 3.80 ± 2.39 % ID/g | Biodistribution: lung (2 H post-injection): 1.96 ± 0.26 % ID/g | Biodistribution: muscle (2 H post-injection): 0.21 ± 0.03 % ID/g | Biodistribution: spleen (2 H post-injection): 4.31 ± 1.96 % ID/g | Biodistribution: stomach (2 H post-injection): 2.86 ± 0.67 % ID/g | Biodistribution: thyroid (2 H post-injection): 1.03 ± 0.26 % ID/g | Biodistribution: Lrg Int. (21 H post-injection): 8.55 ± 5.07 % ID/g | Biodistribution: Sm int. (21 H post-injection): 1.51 ± 0.91 % ID/g | Biodistribution: bladder (21 H post-injection): 1.99 ± 0.54 % ID/g | Biodistribution: blood (21 H post-injection): 0.48 ± 0.13 % ID/g | Biodistribution: heart (21 H post-injection): 1.12 ± 0.27 % ID/g | Biodistribution: kidney (21 H post-injection): 4.38 ± 3.46 % ID/g | Biodistribution: liver (21 H post-injection): 0.59 ± 0.21 % ID/g | Biodistribution: lung (21 H post-injection): 2.89 ± 0.93 % ID/g | Biodistribution: muscle (21 H post-injection): 0.22 ± 0.06 % ID/g | Biodistribution: spleen (21 H post-injection): 2.07 ± 0.68 % ID/g | Biodistribution: stomach (21 H post-injection): 9.36 ± 2.18 % ID/g | Biodistribution: thyroid (21 H post-injection): 3.74 ± 1.42 % ID/g | Biodistribution: PC-3 PiP (1 H post-injection): 22.7 ± 5.42 % ID/g | Biodistribution: PC-3 PiP (2 H post-injection): 21.1 ± 6.16 % ID/g | Biodistribution: PC-3 PiP (21 H post-injection): 12.1 ± 5.03 % ID/g | Biodistribution: PC-3 flu (1 H post-injection): 0.80 ± 0.30 % ID/g | Biodistribution: PC-3 flu (2 H post-injection): 0.52 ± 0.05 % ID/g | Biodistribution: PC-3 flu (21 H post-injection): 0.84 ± 0.23 % ID/g

N=C(N)NCc1ccc(C(=O)NCCCCC(NC(=O)CCCCCCC(=O)NCCCC[C@H](NC(=O)N[C@@H](CCC(=O)O)C(=O)O)C(=O)O)C(=O)O)cc1[131I] (stereo partly shown) [[^131I] labeled PSMA-904]
Biodistribution: Lrg Int. (1 H post-injection): 0.50 ± 0.65 % ID/g | Biodistribution: Sm int. (1 H post-injection): 33.81 ± 6.36 % ID/g | Biodistribution: bladder (1 H post-injection): 0.71 ± 0.23 % ID/g | Biodistribution: blood (1 H post-injection): 0.46 ± 0.17 % ID/g | Biodistribution: heart (1 H post-injection): 0.46 ± 0.18 % ID/g | Biodistribution: kidney (1 H post-injection): 121 ± 23.8 % ID/g | Biodistribution: liver (1 H post-injection): 5.16 ± 3.81 % ID/g | Biodistribution: lung (1 H post-injection): 1.39 ± 0.36 % ID/g | Biodistribution: muscle (1 H post-injection): 0.31 ± 0.14 % ID/g | Biodistribution: spleen (1 H post-injection): 9.83 ± 3.28 % ID/g | Biodistribution: stomach (1 H post-injection): 0.73 ± 0.26 % ID/g | Biodistribution: thyroid (1 H post-injection): 0.11 ± 0.13 % ID/g | Biodistribution: Lrg Int. (2 H post-injection): 21.3 ± 15.9 % ID/g | Biodistribution: Sm int. (2 H post-injection): 14.2 ± 12.0 % ID/g | Biodistribution: bladder (2 H post-injection): 0.64 ± 0.25 % ID/g | Biodistribution: blood (2 H post-injection): 0.18 ± 0.07 % ID/g | Biodistribution: heart (2 H post-injection): 0.27 ± 0.14 % ID/g | Biodistribution: kidney (2 H post-injection): 110 ± 37.2 % ID/g | Biodistribution: liver (2 H post-injection): 3.48 ± 2.35 % ID/g | Biodistribution: lung (2 H post-injection): 0.81 ± 0.37 % ID/g | Biodistribution: muscle (2 H post-injection): 0.13 ± 0.03 % ID/g | Biodistribution: spleen (2 H post-injection): 3.41 ± 2.01 % ID/g | Biodistribution: stomach (2 H post-injection): 1.03 ± 0.62 % ID/g | Biodistribution: thyroid (2 H post-injection): 0.31 ± 0.23 % ID/g | Biodistribution: Lrg Int. (21 H post-injection): 14.5 ± 8.08 % ID/g | Biodistribution: Sm int. (21 H post-injection): 0.87 ± 0.92 % ID/g | Biodistribution: bladder (21 H post-injection): 0.07 ± 0.09 % ID/g | Biodistribution: blood (21 H post-injection): 0.02 ± 0.01 % ID/g | Biodistribution: heart (21 H post-injection): 0.02 ± 0.01 % ID/g | Biodistribution: kidney (21 H post-injection): 3.03 ± 2.96 % ID/g | Biodistribution: liver (21 H post-injection): 0.24 ± 0.39 % ID/g | Biodistribution: lung (21 H post-injection): 0.03 ± 0.01 % ID/g | Biodistribution: muscle (21 H post-injection): 0.03 ± 0.02 % ID/g | Biodistribution: spleen (21 H post-injection): 0.16 ± 0.07 % ID/g | Biodistribution: stomach (21 H post-injection): 1.98 ± 3.10 % ID/g | Biodistribution: thyroid (21 H post-injection): 0.42 ± 0.35 % ID/g | Biodistribution: PC-3 PiP (1 H post-injection): 27.6 ± 7.59 % ID/g | Biodistribution: PC-3 PiP (2 H post-injection): 24.7 ± 9.77 % ID/g | Biodistribution: PC-3 PiP (21 H post-injection): 19.2 ± 7.28 % ID/g | Biodistribution: PC-3 flu (1 H post-injection): 0.49 ± 0.23 % ID/g | Biodistribution: PC-3 flu (2 H post-injection): 0.22 ± 0.06 % ID/g | Biodistribution: PC-3 flu (21 H post-injection): 0.02 ± 0.01 % ID/g

O=C(O)CC[C@H](NC(=O)N[C@@H](CCCCNC(=O)c1ccc([131I])cc1)C(=O)O)C(=O)O [[^131I]YC-I-27]
Biodistribution: Sm int. (1 H post-injection): 1.83 ± 0.41 % ID/g | Biodistribution: bladder (1 H post-injection): 2.99 ± 0.42 % ID/g | Biodistribution: blood (1 H post-injection): 1.57 ± 0.69 % ID/g | Biodistribution: heart (1 H post-injection): 1.88 ± 0.66 % ID/g | Biodistribution: liver (1 H post-injection): 7.37 ± 1.29 % ID/g | Biodistribution: lung (1 H post-injection): 4.67 ± 0.63 % ID/g | Biodistribution: muscle (1 H post-injection): 0.73 ± 0.22 % ID/g | Biodistribution: spleen (1 H post-injection): 21.2 ± 3.62 % ID/g | Biodistribution: stomach (1 H post-injection): 0.92 ± 0.16 % ID/g | Biodistribution: thyroid (1 H post-injection): 0.45 ± 0.14 % ID/g | Biodistribution: Sm int. (2 H post-injection): 1.92 ± 0.55 % ID/g | Biodistribution: bladder (2 H post-injection): 2.96 ± 1.12 % ID/g | Biodistribution: blood (2 H post-injection): 0.86 ± 0.20 % ID/g | Biodistribution: heart (2 H post-injection): 1.31 ± 0.58 % ID/g | Biodistribution: liver (2 H post-injection): 5.69 ± 1.49 % ID/g | Biodistribution: lung (2 H post-injection): 4.92 ± 1.95 % ID/g | Biodistribution: muscle (2 H post-injection): 0.62 ± 0.19 % ID/g | Biodistribution: spleen (2 H post-injection): 26.25 ± 15.11 % ID/g | Biodistribution: stomach (2 H post-injection): 0.71 ± 0.46 % ID/g | Biodistribution: thyroid (2 H post-injection): 0.24 ± 0.18 % ID/g | Biodistribution: Sm int. (4 H post-injection): 1.37 ± 0.51 % ID/g | Biodistribution: bladder (4 H post-injection): 1.37 ± 0.48 % ID/g | Biodistribution: blood (4 H post-injection): 0.59 ± 0.27 % ID/g | Biodistribution: heart (4 H post-injection): 0.87 ± 0.24 % ID/g | Biodistribution: liver (4 H post-injection): 3.21 ± 1.14 % ID/g | Biodistribution: lung (4 H post-injection): 2.72 ± 1.01 % ID/g | Biodistribution: muscle (4 H post-injection): 0.43 ± 0.30 % ID/g | Biodistribution: spleen (4 H post-injection): 18.2 ± 6.19 % ID/g | Biodistribution: stomach (4 H post-injection): 0.69 ± 0.23 % ID/g | Biodistribution: thyroid (4 H post-injection): 0.10 ± 0.22 % ID/g | Biodistribution: Sm int. (21 H post-injection): 0.33 ± 0.12 % ID/g | Biodistribution: bladder (21 H post-injection): 0.48 ± 0.09 % ID/g | Biodistribution: blood (21 H post-injection): 0.16 ± 0.06 % ID/g | Biodistribution: heart (21 H post-injection): 0.46 ± 0.22 % ID/g | Biodistribution: liver (21 H post-injection): 0.56 ± 0.09 % ID/g | Biodistribution: lung (21 H post-injection): 1.63 ± 0.47 % ID/g | Biodistribution: muscle (21 H post-injection): 0.14 ± 0.03 % ID/g | Biodistribution: spleen (21 H post-injection): 5.25 ± 1.51 % ID/g | Biodistribution: stomach (21 H post-injection): 0.40 ± 0.07 % ID/g | Biodistribution: thyroid (21 H post-injection): 0.13 ± 0.11 % ID/g | Biodistribution: PC-3 PiP (1 H post-injection): 13.1 ± 5.55 % ID/g | Biodistribution: PC-3 PiP (2 H post-injection): 15.5 ± 4.19 % ID/g | Biodistribution: PC-3 PiP (4 H post-injection): 16.3 ± 3.80 % ID/g | Biodistribution: PC-3 PiP (21 H post-injection): 25.6 ± 10.2 % ID/g | Biodistribution: PC-3 flu (1 H post-injection): 0.62 ± 0.11 % ID/g | Biodistribution: PC-3 flu (2 H post-injection): 0.40 ± 0.11 % ID/g | Biodistribution: PC-3 flu (4 H post-injection): 0.22 ± 0.07 % ID/g | Biodistribution: PC-3 flu (21 H post-injection): 0.06 ± 0.01 % ID/g | PSMA positive tumor uptake (in words) (biodistributions of Tables 2, 3, 9, 10): demonstrated PSMA positive tumor uptake
